Assay results from US20250228835A1, “PYRIDINYLOXYPYRIDINES AND RELATED COMPOUNDS AND THEIR USE IN TREATING MEDICAL CONDITIONS” (Rectify Pharmaceuticals, Inc., priority 2024, published 2025).
pEC50: −log10 of the molar value.

Columns and labels:
ABCB4 WT = target: T1, ABCB4 WT (Homo sapiens, UniProt P21439); assay: ABCB4 WT assay: HiBit protein expression; type: cell-based; details: HEK-293 cells stably expressing HiBit-tagged ABCB4 WT; 24 h treatment; top concentration 30 μM; read-out: ABCB4 WT EC50, Emax
T1 construct: expressed in transfected cells
T1 sequence (P21439 whole entry): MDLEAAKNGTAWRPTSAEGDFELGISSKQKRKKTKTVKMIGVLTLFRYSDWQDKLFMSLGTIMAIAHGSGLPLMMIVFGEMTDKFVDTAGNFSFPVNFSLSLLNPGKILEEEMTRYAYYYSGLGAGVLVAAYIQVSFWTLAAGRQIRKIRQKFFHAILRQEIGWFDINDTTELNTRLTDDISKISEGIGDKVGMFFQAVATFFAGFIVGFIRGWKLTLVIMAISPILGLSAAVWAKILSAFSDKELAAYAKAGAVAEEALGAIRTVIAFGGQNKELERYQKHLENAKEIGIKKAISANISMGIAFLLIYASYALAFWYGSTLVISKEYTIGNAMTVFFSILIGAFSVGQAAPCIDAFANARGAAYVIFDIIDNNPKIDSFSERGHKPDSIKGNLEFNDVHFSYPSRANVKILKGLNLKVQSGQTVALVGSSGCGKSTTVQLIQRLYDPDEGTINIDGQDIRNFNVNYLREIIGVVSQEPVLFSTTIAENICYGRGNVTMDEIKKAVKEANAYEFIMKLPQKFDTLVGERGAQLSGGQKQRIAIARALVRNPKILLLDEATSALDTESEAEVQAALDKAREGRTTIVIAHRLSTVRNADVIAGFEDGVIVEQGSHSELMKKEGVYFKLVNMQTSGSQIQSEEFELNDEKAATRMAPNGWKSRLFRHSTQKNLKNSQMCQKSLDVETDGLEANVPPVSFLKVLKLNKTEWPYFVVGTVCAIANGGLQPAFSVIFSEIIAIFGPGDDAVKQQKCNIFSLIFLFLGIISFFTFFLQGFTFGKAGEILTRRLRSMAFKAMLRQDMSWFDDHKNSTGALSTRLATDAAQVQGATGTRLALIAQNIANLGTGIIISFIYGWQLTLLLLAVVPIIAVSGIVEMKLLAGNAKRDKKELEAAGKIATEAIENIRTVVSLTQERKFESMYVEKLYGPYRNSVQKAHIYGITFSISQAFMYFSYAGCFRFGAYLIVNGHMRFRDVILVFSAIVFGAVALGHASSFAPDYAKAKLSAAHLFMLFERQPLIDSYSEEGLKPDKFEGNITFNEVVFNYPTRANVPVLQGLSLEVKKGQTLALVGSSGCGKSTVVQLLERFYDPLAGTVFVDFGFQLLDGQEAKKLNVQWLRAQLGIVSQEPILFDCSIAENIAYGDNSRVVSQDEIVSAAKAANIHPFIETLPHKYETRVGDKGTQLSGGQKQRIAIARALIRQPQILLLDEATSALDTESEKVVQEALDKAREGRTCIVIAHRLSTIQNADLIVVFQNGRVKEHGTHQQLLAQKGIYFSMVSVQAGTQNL
Source text: To assess activity against ABCB4, compounds were screened in an assay measuring protein expression, using cells transfected with cDNA encoding HiBit-tagged ABCB4 wild-type.
(§1) Described here is an assay for measuring the expression of the wild type of human ABCB4 (henceforth referred to as ABCB4 WT) and the use of this assay to measure the efficacy of compounds to increase the expression of ABCB4 WT. The assay was designed to characterize the efficacy and potency of compounds to increase the expression of ABCB4 WT by calculating an Emax and EC50 value. HEK-293 cells stably expressing ABCB4 WT (HEK-293/ABCB4 WT) were used for this assay and were maintained at 37° C. (5% CO2, humidified) in Dulbecco's Modified Eagle Medium (DMEM, Gibco product #12100) supplemented with 10% fetal bovine serum (Biosera product #FB-1058/500), 1% PenStrep (HDB product #15140-122), and 0.5 mg/mL puromycin (Gibco product #A11138-03). For the assay, the HEK-293/ABCB4 WT cells were seeded in white/opaque 384-well plates (Corning product #3570) at 10,000 cells/well in 20 μl growth medium and allowed to settle for 4 hours at 37° C. (5% CO2, humidified). Compound serial dilutions are prepared in DMSO as three hundred times (333×) the final concentration and using a dilution factor of 3 using Bravo (Agilent). After the four-hour incubation period, 60 nL of DMSO solutions are transferred to the assay plate.
(§2) Dose response curves include eleven doses with the top final concentration at 30 μM in 0.3% DMSO. Liquid handling is performed with ECHO 550 Acoustic Liquid Handler (Labcyte). After addition of compound treatment, cells are incubated for 24 hours at 37° C. (5% CO2, humidified). After the 24-hour treatment, plates are allowed to equilibrate to room temperature for 10 minutes. Using Dragonfly Automated Liquid Handler (TTP LabTech), 20 μl of HiBit lytic assay reagent (Promega, product #N3040), which is prepared according to manufacturer's instructions, is added to each well. The plates are rotated at room temperature for 2 minutes and incubated for 1 hour at 25° C. before luminescent signal is acquired using an EnVision Multimode Plate Reader (PerkinElmer).
Results are presented below in Table 5 for ABCB4 WT.

ABCD2 WT = target: T2, ABCD2 WT (Homo sapiens, UniProt Q9UBJ2); assay: D2 correction dose-response assay: ABCD2 WT HiBit protein expression; type: cell-based; details: HEK-293/ABCD2 WT cells, 24 hours treatment, HiBit luminescence; class combines EC50 and Mean MaxAct (fold); read-out: ABCD2 WT EC50, Emax
T2 construct: expressed in transfected cells
T2 sequence (Q9UBJ2 1-740): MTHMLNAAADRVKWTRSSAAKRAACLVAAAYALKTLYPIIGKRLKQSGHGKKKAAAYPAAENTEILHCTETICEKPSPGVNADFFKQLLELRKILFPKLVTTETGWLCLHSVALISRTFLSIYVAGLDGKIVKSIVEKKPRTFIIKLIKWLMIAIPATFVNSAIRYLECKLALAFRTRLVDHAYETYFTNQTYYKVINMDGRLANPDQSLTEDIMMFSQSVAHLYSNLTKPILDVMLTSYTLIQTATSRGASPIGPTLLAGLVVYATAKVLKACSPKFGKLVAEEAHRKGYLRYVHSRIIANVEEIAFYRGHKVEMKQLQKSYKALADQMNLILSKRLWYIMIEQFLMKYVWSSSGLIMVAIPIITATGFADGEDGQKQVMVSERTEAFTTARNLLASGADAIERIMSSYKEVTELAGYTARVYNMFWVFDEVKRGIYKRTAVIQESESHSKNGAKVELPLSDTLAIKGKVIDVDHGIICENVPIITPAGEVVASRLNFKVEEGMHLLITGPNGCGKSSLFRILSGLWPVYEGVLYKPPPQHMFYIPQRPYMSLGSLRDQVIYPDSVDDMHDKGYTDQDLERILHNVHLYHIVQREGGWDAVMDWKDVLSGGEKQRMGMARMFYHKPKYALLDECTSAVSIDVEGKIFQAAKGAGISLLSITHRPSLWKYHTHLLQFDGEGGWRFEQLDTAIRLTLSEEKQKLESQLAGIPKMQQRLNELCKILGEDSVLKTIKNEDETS
Procedure: Exemplary compounds were evaluated in a D2 correction dose-response assay.
as §1, with “To assess activity against ABCD2, the compounds were screened in an assay measuring protein expression, using cells transfected with cDNA encoding HiBit-tagged ABCD2 wild-type. Here we describe” for “Described here is”, “ABCD2” for “ABCB4”, “(HEK-293/ABCD2” for “(HEK-293/ABCB4”, “HEK-293/ABCD2” for “HEK-293/ABCB4”
as §2

| SMILES | pEC50 (ABCB4 WT) | pEC50 (ABCD2 WT) |
| --- | --- | --- |
| Cc1cc(C(F)(F)F)nc(C2CC2)c1Oc1nc(-c2cncc(C#N)c2)ccc1NS(=O)(=O)C(C)C [Compound I-141] | > 6.00 | > 6.00 |
| Cc1nc(C(F)(F)F)nc(C2CC2)c1Oc1nc(-c2cncc(C#N)c2)ccc1N(C)S(C)(=O)=O [Compound I-142] | ≤ 4.60 | 5.00 to 6.00 |
| Cc1nc(C2COC2)nc(C2CC2)c1Oc1nc(-c2cncc(C#N)c2)ccc1NS(C)(=O)=O [Compound I-143] | > 6.00 | > 6.00 |
| Cc1nc(C(F)F)nc(C2CC2)c1Oc1nc(-c2cncc(C#N)c2)ccc1NS(C)(=O)=O [Compound I-144] | > 6.00 | < 4.60 |
| Cc1nc(C(F)(F)F)nc(C2CC2)c1Oc1nc(-c2cncc(C#N)c2)ccc1NS(C)(=O)=O [Compound I-145] | > 6.00 | > 6.00 |
| Cc1cc(C2CC2)nc(C2CC2)c1Oc1nc(-c2cncc(C#N)c2)ccc1N(C)S(C)(=O)=O [Compound I-146] | ≤ 4.60 | 4.60 to 5.00 |
| Cc1cc(C)c(Oc2nc(-c3cncc(C#N)c3)ccc2NS(=O)(=O)c2cccnc2)c(C2CC2)n1 [Compound I-147] | > 4.60 | > 6.00 |
| CCS(=O)(=O)N(C)c1ccc(-c2cncc(C#N)c2)nc1Oc1c(C)cc(C(F)(F)F)nc1C1CC1 [Compound I-148] | > 6.00 | > 6.00 |
| Cc1nc(C(F)(F)F)nc(C2CC2)c1Oc1nc(-c2cncc(Cl)c2)ccc1N(C)S(C)(=O)=O [Compound I-149] | ≤ 4.60 | < 4.60 |
| Cc1nc(C2CC2)nc(C2CC2)c1Oc1nc(-c2cncc(C#N)c2)ccc1NS(C)(=O)=O [Compound I-150] | > 6.00 | > 6.00 |
| Cc1nc(C(F)(F)F)nc(C2CC2)c1Oc1nc(-c2cncc(Cl)c2)ccc1NS(C)(=O)=O [Compound I-151] | > 6.00 | > 6.00 |
| CCS(=O)(=O)Nc1ccc(-c2cncc(C#N)c2)nc1Oc1c(C)cc(C(F)(F)F)nc1C1CC1 [Compound I-152] | > 6.00 | > 6.00 |
| Cc1cc(C(F)(F)F)nc(C2CC2)c1Oc1nc(-c2cncc(Cl)c2)ccc1N(C)S(C)(=O)=O [Compound I-153] | ≤ 4.60 | 5.00 to 6.00 |
| Cc1nc(C(F)(F)F)cc(C2CC2)c1Oc1nc(-c2cncc(C#N)c2)ccc1N(C)S(C)(=O)=O [Compound I-154] | > 4.60 | < 4.60 |
| Cc1nc(C(F)(F)F)cc(C2CC2)c1Oc1nc(-c2cncc(C#N)c2)ccc1NS(C)(=O)=O [Compound I-155] | > 6.00 | < 4.60 |
| Cc1cc(C(F)(F)F)nc(C2CC2)c1Oc1nc(-c2cncc(C#N)c2)ccc1N(C)S(C)(=O)=O [Compound I-156] | ≤ 4.60 | > 6.00 |
| Cc1nc(C)c(Oc2nc(-c3cncc(C#N)c3)ccc2N(C)S(C)(=O)=O)c(C2CC2)n1 [Compound I-157] | > 4.60 | 4.60 to 5.00 |
| Cc1cc(C(F)(F)F)nc(C2CC2)c1Oc1nc(-c2cncc(Cl)c2)ccc1NS(C)(=O)=O [Compound I-158] | > 6.00 | > 6.00 |
| Cc1nc(N2CC(C#N)C2)nc(C)c1Oc1nc(-c2cncc(C#N)c2)ccc1NS(C)(=O)=O [Compound I-159] | > 6.00 | > 6.00 |
| Cc1nc(N2CC3(COC3)C2)nc(C)c1Oc1nc(-c2cncc(C#N)c2)ccc1NS(C)(=O)=O [Compound I-160] | > 4.60 | < 4.60 |
| Cc1cc(C2CC2)nc(C2CC2)c1Oc1nc(-c2cncc(C#N)c2)ccc1NS(C)(=O)=O [Compound I-161] | > 6.00 | < 4.60 |
| Cc1nc(C2CC2)cc(C2CC2)c1Oc1nc(-c2cncc(C#N)c2)ccc1NS(C)(=O)=O [Compound I-162] | ≤ 4.60 | < 4.60 |
| Cc1cc(C(F)(F)F)nc(C2CC2)c1Oc1nc(-c2cncc(C#N)c2)ccc1NS(C)(=O)=O [Compound I-163] | > 6.00 | > 6.00 |
| Cc1nc(C)c(Oc2nc(-c3cncc(Cl)c3)ccc2NS(C)(=O)=O)c(C2CC2)n1 [Compound I-164] | 5.00 to 6.00 | 5.00 to 6.00 |
